Measured values published in patent US12410160B2 (Gilead Sciences, Inc., priority 2021, dated 2025).

Tests used:
human KHK-A = human KHK-A (Homo sapiens (Human), UniProt P50053); assay: KHK Biochemical Assay (IC50), ADP-Glo, KHK-A; settings: ADP-Glo; average of at least two separate assays
How it was run: (§1)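 His-tagged enzyme expressed in BL21 (DE3), Ni-NTA purified. Compounds, serially diluted 1:3 in DMSO, pre-incubated 30 min with enzyme in 50 mM Hepes pH 7.4, 140 mM KCl, 5 mM MgCl2, 0.01% Triton-X, then ATP and fructose added; 4 h at room temperature. ADP formation read by ADP-Glo luminescence.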

[1] = molecular target: KHK-C expressed in NRK-52E cells (Homo sapiens (Human), UniProt P50053); assay: KHK-C Cell-based Assay (EC50), NRK CTG, fructose-mediated ATP-depletion
human KHK-C = human KHK-C (Homo sapiens (Human), UniProt P50053); assay: KHK Biochemical Assay (IC50), ADP-Glo, KHK-C; settings: ADP-Glo; average of at least two separate assays
How it was run: as §1

Chain of human KHK-A (P50053 other isoform, or with tags, fused parts or gaps): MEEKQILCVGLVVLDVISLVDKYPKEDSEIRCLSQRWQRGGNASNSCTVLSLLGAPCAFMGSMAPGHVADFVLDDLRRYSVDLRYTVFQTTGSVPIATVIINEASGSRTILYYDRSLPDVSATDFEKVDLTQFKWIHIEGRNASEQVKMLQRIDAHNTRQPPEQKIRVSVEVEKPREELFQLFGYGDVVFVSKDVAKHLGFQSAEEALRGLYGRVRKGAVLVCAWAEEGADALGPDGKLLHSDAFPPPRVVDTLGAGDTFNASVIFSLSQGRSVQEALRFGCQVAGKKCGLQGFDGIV
Chain of KHK-C expressed in NRK-52E cells (P50053 whole entry): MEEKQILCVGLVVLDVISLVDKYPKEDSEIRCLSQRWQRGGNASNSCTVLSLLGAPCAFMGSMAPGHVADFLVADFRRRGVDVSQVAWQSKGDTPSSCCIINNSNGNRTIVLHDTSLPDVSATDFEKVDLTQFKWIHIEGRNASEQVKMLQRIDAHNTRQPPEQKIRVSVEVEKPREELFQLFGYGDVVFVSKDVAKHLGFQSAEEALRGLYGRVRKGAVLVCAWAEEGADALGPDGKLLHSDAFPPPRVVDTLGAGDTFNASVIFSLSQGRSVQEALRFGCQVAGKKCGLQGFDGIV
Chain of human KHK-C (P50053 whole entry): as above

IC50 (human KHK-A) [nM]	EC50 [1] [nM]	IC50 (human KHK-C) [nM]	Compound
158	1030	89.9	C[C@H]1CCN1c1nc2c(c(-c3ccc4c(c3)CC(CC(=O)O)C4)n1)CCC2 (stereo partly drawn) [Example 134, 2-(5-(2-((S)-2-methylazetidin-1-yl)-6,7-dihydro-5H-cyclopenta[d]pyrimidin-4-yl)-2,3-dihydro-1H-inden-2-yl)acetic acid]
126	277	111	C[C@H]1CCN1c1nc2c(c(-c3ccc4c(c3)CC(CC(N)=O)C4)n1)CCC2 (stereo partly drawn) [Example 135, 2-(5-(2-((S)-2-methylazetidin-1-yl)-6,7-dihydro-5H-cyclopenta[d]pyrimidin-4-yl)-2,3-dihydro-1H-inden-2-yl)acetamide]
85.8	2490	55.3	C[C@H]1CCN1c1nc2c(c(-c3ccc4c(c3)CC(C(=O)O)C4)n1)CCC2 (stereo partly drawn) [Example 139, 5-(2-((S)-2-methylazetidin-1-yl)-6,7-dihydro-5H-cyclopenta[d]pyrimidin-4-yl)-2,3-dihydro-1H-indene-2-carboxylic acid]
28.1	163	52.8	C[C@H]1CCN1c1nc2c(c(-c3ccc4c(c3)CC(C(N)=O)C4)n1)CCC2 (stereo partly drawn) [Example 140, 5-(2-((S)-2-methylazetidin-1-yl)-6,7-dihydro-5H-cyclopenta[d]pyrimidin-4-yl)-2,3-dihydro-1H-indene-2-carboxamide]
334	1260	290	C[C@@H]1N(c2nc3c(c(-c4ccc(C(N)=O)cc4)n2)CCC3)C[C@@]1(C)O [Example 141]
2110	2040	2430	NC(=O)c1ccc(-c2nc(N3CCCC3)nc3c2CCC3)cc1 [Example 142, 4-(2-(pyrrolidin-1-yl)-6,7-dihydro-5H-cyclopenta[d]pyrimidin-4-yl)benzamide]
21.4	43.3	30.6	C[C@H]1CCN1c1nc2c(c(-c3ccc4nc(N)ccc4c3)n1)CCC2 [Example 143, (S)-6-(2-(2-methylazetidin-1-yl)-6,7-dihydro-5H-cyclopenta[d]pyrimidin-4-yl)quinolin-2-amine]
1690	2440	2400	C[C@H]1CCN1c1nc2c(c(-c3ccc(C(N)=O)c4ccccc34)n1)CCC2 [Example 144, (S)-4-(2-(2-methylazetidin-1-yl)-6,7-dihydro-5H-cyclopenta[d]pyrimidin-4-yl)-1-naphthamide]
33.2	18.8	6.7	C[C@H]1CCN1c1nc2c(c(-c3ccc4c(c3)OCCNC4=O)n1)CCC2 [Example 149, (S)-8-(2-(2-methylazetidin-1-yl)-6,7-dihydro-5H-cyclopenta[d]pyrimidin-4-yl)-3,4-dihydrobenzo[f][1,4]oxazepin-5(2H)-one]
32.2	73.2	33.1	C[C@H]1CCN1c1nc2c(c(-c3ccc4c(c3)C(=O)NCCO4)n1)CCC2 [Example 150, (S)-7-(2-(2-methylazetidin-1-yl)-6,7-dihydro-5H-cyclopenta[d]pyrimidin-4-yl)-3,4-dihydrobenzo[f][1,4]oxazepin-5(2H)-one]
4980	1360	3890	C[C@H]1CCN1c1nc2c(c(-c3cc4ccccc4[nH]3)n1)CCC2 [Example 151, (S)-4-(1H-indol-2-yl)-2-(2-methylazetidin-1-yl)-6,7-dihydro-5H-cyclopenta[d]pyrimidine]
63.6	200	94	C[C@H]1CCN1c1nc2c(c(-c3cc4cc(C(N)=O)ccc4[nH]3)n1)CCC2 [Example 152, (S)-2-(2-(2-methylazetidin-1-yl)-6,7-dihydro-5H-cyclopenta[d]pyrimidin-4-yl)-1H-indole-5-carboxamide]
186	4000	66.6	C[C@H]1CCN1c1nc2c(c(-c3cc4cc(C(=O)O)ccc4[nH]3)n1)CCC2 [Example 153, (S)-2-(2-(2-methylazetidin-1-yl)-6,7-dihydro-5H-cyclopenta[d]pyrimidin-4-yl)-1H-indole-5-carboxylic acid]
45.8	34	90.4	C[C@H]1CCN1c1nc2c(c(-c3cc4cccc(C(N)=O)c4[nH]3)n1)CCC2 [Example 154, (S)-2-(2-(2-methylazetidin-1-yl)-6,7-dihydro-5H-cyclopenta[d]pyrimidin-4-yl)-1H-indole-7-carboxamide]
232	4790	99.5	C[C@H]1CCN1c1nc2c(c(-c3cc4c(C(=O)O)cccc4[nH]3)n1)CCC2 [Example 155, (S)-2-(2-(2-methylazetidin-1-yl)-6,7-dihydro-5H-cyclopenta[d]pyrimidin-4-yl)-1H-indole-4-carboxylic acid]
99.9	145	82	C[C@H]1CCN1c1nc2c(c(-c3cc4c(C(N)=O)cccc4[nH]3)n1)CCC2 [Example 156, (S)-2-(2-(2-methylazetidin-1-yl)-6,7-dihydro-5H-cyclopenta[d]pyrimidin-4-yl)-1H-indole-4-carboxamide]
125	291	211	C[C@H]1CCN1c1nc(-c2ccc(C(N)=O)cc2)c2c(n1)C(F)(F)CCC2 [Example 157, (S)-4-(8,8-difluoro-2-(2-methylazetidin-1-yl)-5,6,7,8-tetrahydroquinazolin-4-yl)benzamide]
217	1120	314	C[C@H]1[C@H](O)CN1c1nc(-c2ccc(C(N)=O)cc2)c2c(n1)C(F)(F)CCC2 [Example 158]
66.5	249	49.8	C[C@H]1CCN1c1nc2c(c(-c3ccc4nc(O)ccc4c3)n1)CCC2 [Example 175, (S)-6-(2-(2-methylazetidin-1-yl)-6,7-dihydro-5H-cyclopenta[d]pyrimidin-4-yl)quinolin-2-ol]
152	275	210	C[C@H]1CCN1c1nc2c(c(-c3ccc4[nH]c(C(N)=O)cc4c3)n1)CCC2 [Example 184, 5-[2-[(2S)-2-methylazetidin-1-yl]-6,7-dihydro-5H-cyclopenta[d]pyrimidin-4-yl]-1H-indole-2-carboxamide]
60.6	83.9	48.8	C[C@H]1CCN1c1nc2c(c(-c3ccc(-c4ncc[nH]4)cc3)n1)CCC2 [Example 185, 4-[4-(1H-imidazol-2-yl)phenyl]-2-[(2S)-2-methylazetidin-1-yl]-6,7-dihydro-5H-cyclopenta[d]pyrimidine]
78.2	143	66.9	C[C@H]1CCN1c1nc2c(c(-c3ccc4c(c3)CN(C)C4=O)n1)CCC2 [Example 186, 2-methyl-5-[2-[(2S)-2-methylazetidin-1-yl]-6,7-dihydro-5H-cyclopenta[d]pyrimidin-4-yl]isoindolin-1-one]
33.3	91.6	22.4	C[C@H]1CCN1c1nc2c(c(-c3ccc4c(c3)CNC4=O)n1)CCC2 [Example 187, 5-[2-[(2S)-2-methylazetidin-1-yl]-6,7-dihydro-5H-cyclopenta[d]pyrimidin-4-yl]isoindolin-1-one]
81.6	112	61.7	C[C@H]1CCN1c1nc2c(c(-c3ccc(S(N)(=O)=O)cc3)n1)CCC2 [Example 189, 4-[2-[(2S)-2-methylazetidin-1-yl]-6,7-dihydro-5H-cyclopenta[d]pyrimidin-4-yl]benzenesulfonamide]
48.7	28.1	40.8	C[C@H]1CCN1c1nc2c(c(-c3cccc(C(C)(C)N)c3)n1)CCC2 [Example 190, 2-[3-[2-[(2S)-2-methylazetidin-1-yl]-6,7-dihydro-5H-cyclopenta[d]pyrimidin-4-yl]phenyl]propan-2-amine]
73.4	412	97.8	C[C@H]1[C@H](O)CN1c1nc2c(c(-c3ccc(-c4ncc[nH]4)cc3)n1)CCC2 [Example 193, (2S,3R)-1-[4-[4-(1H-imidazol-2-yl)phenyl]-6,7-dihydro-5H-cyclopenta[d]pyrimidin-2-yl]-2-methyl-azetidin-3-ol]
136	367	86.7	C[C@H]1[C@H](O)CN1c1nc2c(c(-c3ccc4c(c3)CNC4=O)n1)CCC2 [Example 196, 5-[2-[(2S,3R)-3-hydroxy-2-methyl-azetidin-1-yl]-6,7-dihydro-5H-cyclopenta[d]pyrimidin-4-yl]isoindolin-1-one]
14.9	49.3	10.9	C[C@H]1[C@H](F)CN1c1nc2c(c(-c3ccc(C(N)=O)cc3)n1)CCC2 [Example 200, 4-[2-[(2S,3R)-3-fluoro-2-methyl-azetidin-1-yl]-6,7-dihydro-5H-cyclopenta[d]pyrimidin-4-yl]benzamide]

Compound	IC50 (human KHK-A) [nM]	EC50 [1] [nM]	IC50 (human KHK-C) [nM]
C[C@H]1CCN1c1nc2c(c(-c3ccc4c(c3)CC3C(C(=O)O)C43)n1)CCC2 (stereo partly drawn) [Example 136, 4-(2-((S)-2-methylazetidin-1-yl)-6,7-dihydro-5H-cyclopenta[d]pyrimidin-4-yl)-1,1a,6,6a-tetrahydrocyclopropa[a]indene-1-carboxylic acid]	114	2460	62
C[C@H]1CCN1c1nc2c(c(-c3ccc4c(c3)C3(CCC4)CC3C(=O)O)n1)CCC2 (stereo partly drawn) [Example 148, 7′-(2-((S)-2-methylazetidin-1-yl)-6,7-dihydro-5H-cyclopenta[d]pyrimidin-4-yl)-3′,4′-dihydro-2′H-spiro[cyclopropane-1,1′-naphthalene]-2-carboxylic acid]	84	653	59.9
